Source: patent publication US20260347338A1, “PYRIMIDINE/PYRIDINE DERIVATIVES OR SALTS THEREOF AND PHARMACEUTICAL COMPOSITIONS COMPRISING THE SAME” (YUHAN CORPORATION, priority 2023, published 2026)
Structures can show the parent of a compound that is named as a salt.

The compounds below were run against T1, human recombinant HPK1 (Homo sapiens, UniProt Q92918) (assay: Inhibitory activity against human recombinant HPK1 (TR-FRET)). Conditions: ULight-p70S6K peptide, ATP at Km, room temperature, 1 hour, 0.32 to 1000 nM compound.
T1 construct: purchased BPS Bioscience
T1 sequence (Q92918 whole entry): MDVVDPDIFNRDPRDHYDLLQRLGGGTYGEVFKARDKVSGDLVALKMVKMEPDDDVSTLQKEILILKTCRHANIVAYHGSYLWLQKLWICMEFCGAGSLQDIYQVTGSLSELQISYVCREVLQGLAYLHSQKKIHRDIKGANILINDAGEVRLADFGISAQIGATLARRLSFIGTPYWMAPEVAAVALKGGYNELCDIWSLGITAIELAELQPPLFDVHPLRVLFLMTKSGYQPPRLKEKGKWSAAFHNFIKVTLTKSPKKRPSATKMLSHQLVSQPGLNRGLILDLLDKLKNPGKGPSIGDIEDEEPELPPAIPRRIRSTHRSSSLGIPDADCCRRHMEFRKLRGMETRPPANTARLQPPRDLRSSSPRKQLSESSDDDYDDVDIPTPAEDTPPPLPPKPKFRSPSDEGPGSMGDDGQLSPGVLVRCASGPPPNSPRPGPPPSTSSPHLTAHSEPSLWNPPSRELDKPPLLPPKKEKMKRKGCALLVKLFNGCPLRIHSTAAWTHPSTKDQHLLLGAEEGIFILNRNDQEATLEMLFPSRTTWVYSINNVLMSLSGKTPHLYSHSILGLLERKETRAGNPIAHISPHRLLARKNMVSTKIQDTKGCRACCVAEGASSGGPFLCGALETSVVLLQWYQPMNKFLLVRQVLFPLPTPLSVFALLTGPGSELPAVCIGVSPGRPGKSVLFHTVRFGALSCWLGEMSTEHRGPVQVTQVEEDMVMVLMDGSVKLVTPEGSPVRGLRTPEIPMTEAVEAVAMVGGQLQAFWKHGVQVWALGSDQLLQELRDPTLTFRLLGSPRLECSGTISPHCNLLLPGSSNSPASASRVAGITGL
Type: biochemical
Procedure: Test Example: Evaluation of Inhibitory Activity Against Human Recombinant HPK1
The inhibitory activity against human recombinant HPK1 was evaluated using the Time-Resolved Fluorescence Resonance Energy Transfer (TR-FRET) technology of Perkin-Elmer. The test compound was prepared as a 20 mM stock solution with dimethyl sulfoxide (DMSO), serially diluted in a buffer solution, and used at final compound concentrations of 0.32 to 1000 nM. The evaluation of inhibitory activity was carried out at room temperature, using recombinant human HPK1 (BPS Bioscience). Briefly, recombinant human HPK1, serially diluted each test compound, ULight-p70S6K peptide substrate (PerkinElmer), and ATP at each concentration (Km and final concentration) were added to a kinase buffer solution (50 mM HEPES pH 7.4, 10 mM MgCl2, 1 mM EGTA, 3 mM MnCl2, 2 mM DTT, and 0.01% Tween-20). The resulting mixture was added to each well of a 384-well plate (Optiplate™ 384, white, PerkinElmer). The enzyme reaction was carried out at room temperature for 1 hour. After the reaction was suspended by adding 4 μL of a stop solution (10 mM EDTA) thereto, the mixture was stirred for 1 minute and then a detection solution containing Europium-labeled anti-phosphopeptide antibody (final concentration: 2 nM, PerkinElmer) was added thereto. The signals of TR-FRET at excitation wavelength (320 nm) and emission wavelength (665 nm) were detected using a microplate reader (Envision Multilabel Reader, Perkin-Elmer). Inhibition by the test compound was measured as % inhibition in the signals, compared to the control group treated with DMSO only. The IC50 value of each compound was calculated using the GraphPad Prism program (GraphPad Software, Inc., San Diego, CA, USA). The IC50 values of test compounds for inhibitory activity against HPK1 were classified as follows: • A: IC50≤10 nM • B: 10 nM<IC50≤50 nM • C: 50 nM<IC50≤100 nM • D: IC50>100 nM

For `COc1cc(F)cc(F)c1-c1nccc(Nc2cc(N3CCC[C@H](O)C3)c(-c3cnn(C(F)F)c3)cn2)n1` [Example 182, (S)-1-(2-((2-(2,4-difluoro-6-methoxyphenyl)pyrimidin-4-yl)amino)-5-(1-(difluoromethyl)-1H-pyrazol-4-yl)pyridin-4-yl)piperidin-3-ol], which IC50 is on record?
Its IC50 is no more than 0.01 µM.

How did the IC50 turn out when `COCCCn1cc(-c2cnc(Nc3ccnc(-c4c(F)cccc4OC)n3)cc2N2CCC[C@H](N)C2)cn1` [Example 116, (S)-N-(4-(3-aminopiperidin-1-yl)-5-(1-(3-methoxypropyl)-1H-pyrazol-4-yl)pyridin-2-yl)-2-(2-fluoro-6-methoxyphenyl)pyrimidin-4-amine hydrochloride] was run?
The IC50 was no more than 0.01 µM.

Which IC50 does the source give for `COc1cccc(F)c1-c1nccc(Nc2cc(N3CCC[C@@H](O)C3)c(C#Cc3cnn(C(F)(F)F)c3)cn2)n1` [Example 9, (R)-1-(2-((2-(2-fluoro-6-methoxyphenyl)pyrimidin-4-yl)amino)-5-((1-(trifluoromethyl)-1H-pyrazol-4-yl)ethynyl)pyridin-4-yl)piperidin-3-ol] here?
The IC50 was 0.01 to 0.05 µM.

`COc1cccc(F)c1-c1nccc(Nc2cc(N3CCC[C@H](O)C3)c(-c3ccc(C(=O)N4CCOCC4)nc3)cn2)n1` [Example 37, (S)-(6′-((2-(2-fluoro-6-methoxyphenyl)pyrimidin-4-yl)amino)-4′-(3-hydroxypiperidin-1-yl)-[3,3′-bipyridin]-6-yl)(morpholino)methanone] was tested. Which IC50 did it give?
Its IC50 is 0.01 to 0.05 µM.

How did the IC50 turn out when `COc1cc(F)cc(F)c1-c1nccc(Nc2cc(N3CCC[C@H](N)C3)c(C#Cc3cnn(C(F)(F)F)c3)cn2)n1` [Example 159, (S)-N-(4-(3-aminopiperidin-1-yl)-5-((1-(trifluoromethyl)-1H-pyrazol-4-yl)ethynyl)pyridin-2-yl)-2-(2,4-difluoro-6-methoxyphenyl)pyrimidin-4-amine hydrochloride] was run?
The IC50 was no more than 0.01 µM.

Which IC50 does the source give for `COc1cc(F)cc(F)c1-c1nccc(Nc2cc(N3CCC[C@H](O)C3)c(C#Cc3cnn(C(F)(F)F)c3)cn2)n1` [Example 218, (S)-1-(2-((2-(2,4-difluoro-6-methoxyphenyl)pyrimidin-4-yl)amino)-5-((1-(trifluoromethyl)-1H-pyrazol-4-yl)ethynyl)pyridin-4-yl)piperidin-3-ol] here?
Its IC50 is no more than 0.01 µM.

`COc1cc(F)cc(F)c1-c1nc(Nc2cc(N3CCC[C@H](O)C3)c(-c3cnn(CC(F)F)c3)cn2)ccc1N` [Example 226, (3S)-1-(2-((5-amino-6-(2,4-difluoro-6-methoxyphenyl)pyridin-2-yl)amino)-5-(1-(2,2-difluoroethyl)-1H-pyrazol-4-yl)pyridin-4-yl)piperidin-3-ol] was tested. Which IC50 did it give?
Its IC50 is no more than 0.01 µM.

For `COc1cccc(F)c1-c1nccc(Nc2cc(N3CCC(C(C)(C)CO)CC3)c(-c3cnn(C4CCOCC4)c3)cn2)n1` [Example 67, 2-(1-(2-((2-(2-fluoro-6-methoxyphenyl)pyrimidin-4-yl)amino)-5-(1-(tetrahydro-2H-pyran-4-yl)-1H-pyrazol-4-yl)pyridin-4-yl)piperidin-4-yl)-2-methylpropan-1-ol], which IC50 is on record?
The IC50 was no more than 0.01 µM.

With `COc1cccc(F)c1-c1nc(Nc2cc(N3CCC[C@H](N)C3)c(-c3cnn(C4CCOCC4)c3)cn2)ccc1C#N` [Example 300, 6-((4-((S)-3-aminopiperidin-1-yl)-5-(1-(tetrahydro-2H-pyran-4-yl)-1H-pyrazol-4-yl)pyridin-2-yl)amino)-2-(2-fluoro-6-methoxyphenyl)nicotinonitrile hydrochloride] as the compound, how does the IC50 read?
The IC50 was no more than 0.01 µM.

`COc1cccc(F)c1-c1nc(Nc2cc(N3CCC[C@H](O)C3)c(-c3cnn(C(F)F)c3)cn2)ccc1C(=O)N(C)C` [Example 141, 6-((5-(1-(difluoromethyl)-1H-pyrazol-4-yl)-4-((S)-3-hydroxypiperidin-1-yl)pyridin-2-yl)amino)-2-(2-fluoro-6-methoxyphenyl)-N,N-dimethylnicotinamide] was tested. Which IC50 did it give?
The IC50 was greater than 0.1 µM.

How did the IC50 turn out when `COc1cc(F)cc(F)c1-c1nccc(Nc2cc(N3CCC[C@H](N)C3)c(C#CC3CCOCC3)cn2)n1` [Example 110, (S)-N-(4-(3-aminopiperidin-1-yl)-5-((tetrahydro-2H-pyran-4-yl)ethynyl)pyridin-2-yl)-2-(2,4-difluoro-6-methoxyphenyl)pyrimidin-4-amine] was run?
The IC50 was no more than 0.01 µM.

With `COc1cc(F)cc(F)c1-c1nc(Nc2cc(N3CCC[C@H](O)C3)c(C#CC3CCOCC3)cn2)ccc1[N+](=O)[O-]` [Example 225, (3S)-1-(2-((6-(2,4-difluoro-6-methoxyphenyl)-5-nitropyridin-2-yl)amino)-5-((tetrahydro-2H-pyran-4-yl)ethynyl)pyridin-4-yl)piperidin-3-ol] as the compound, how does the IC50 read?
Its IC50 is no more than 0.01 µM.

How did the IC50 turn out when `COc1cccc(F)c1-c1nc(Nc2cc(N3CCC[C@H](N)C3)c(-c3cnn(C(F)F)c3)cn2)ccc1[N+](=O)[O-]` [Example 146, 4-((S)-3-aminopiperidin-1-yl)-5-(1-(difluoromethyl)-1H-pyrazol-4-yl)-N-(6-(2-fluoro-6-methoxyphenyl)-5-nitropyridin-2-yl)pyridin-2-amine hydrochloride] was run?
The IC50 was no more than 0.01 µM.

`COc1cccc(F)c1-c1nc(Nc2cc(N3CCC[C@H](N)C3)c(-c3cnn(C(F)F)c3)cn2)ccc1C#N` [Example 301, 6-((4-((S)-3-aminopiperidin-1-yl)-5-(1-(difluoromethyl)-1H-pyrazol-4-yl)pyridin-2-yl)amino)-2-(2-fluoro-6-methoxyphenyl)nicotinonitrile hydrochloride] was tested. Which IC50 did it give?
Its IC50 is no more than 0.01 µM.

`COc1cccc(F)c1-c1nccc(Nc2cc(N3CCC[C@H](N)C3)c(-c3cnn(CC(C)(C)OC)c3)cn2)n1` [Example 229, (S)-N-(4-(3-aminopiperidin-1-yl)-5-(1-(2-methoxy-2-methylpropyl)-1H-pyrazol-4-yl)pyridin-2-yl)-2-(2-fluoro-6-methoxyphenyl)pyrimidin-4-amine] was tested. Which IC50 did it give?
Its IC50 is no more than 0.01 µM.

With `COc1cccc(F)c1-c1nccc(Nc2cc(N3CCC[C@H](N)C3)c(-c3cnn(CCO)c3)cn2)n1` [Example 133, (S)-2-(4-(4-(3-aminopiperidin-1-yl)-6-((2-(2-fluoro-6-methoxyphenyl)pyrimidin-4-yl)amino)pyridin-3-yl)-1H-pyrazol-1-yl)ethan-1-ol hydrochloride] as the compound, how does the IC50 read?
The IC50 was no more than 0.01 µM.

`COc1cc(F)cc(F)c1-c1nccc(Nc2cc(N3CCC[C@H](N)C3)c(-c3cnn(C(F)(F)F)c3)cn2)n1` [Example 157, (S)-N-(4-(3-aminopiperidin-1-yl)-5-(1-(trifluoromethyl)-1H-pyrazol-4-yl)pyridin-2-yl)-2-(2,4-difluoro-6-methoxyphenyl)pyrimidin-4-amine hydrochloride] was tested. Which IC50 did it give?
Its IC50 is no more than 0.01 µM.

`COc1cccc(F)c1-c1nccc(Nc2cc(N3CCC[C@H](N)C3)c(C#Cc3cnn(C(F)F)c3)cn2)n1` [Example 164, (S)-N-(4-(3-aminopiperidin-1-yl)-5-((1-(difluoromethyl)-1H-pyrazol-4-yl)ethynyl)pyridin-2-yl)-2-(2-fluoro-6-methoxyphenyl)pyrimidin-4-amine hydrochloride] was tested. Which IC50 did it give?
Its IC50 is no more than 0.01 µM.

`COc1cc(CO)cc(F)c1-c1nccc(Nc2cc(N3CCC[C@H](N)C3)c(-c3cnn(CC(F)(F)F)c3)cn2)n1` [Example 102, (S)-(4-(4-((4-(3-aminopiperidin-1-yl)-5-(1-(2,2,2-trifluoroethyl)-1H-pyrazol-4-yl)pyridin-2-yl)amino)pyrimidin-2-yl)-3-fluoro-5-methoxyphenyl)methanol hydrochloride] was tested. Which IC50 did it give?
Its IC50 is no more than 0.01 µM.
